Test results published in patent EP0741709B1, “AROMATIC 2-AMINO-IMIDAZOLE DERIVATIVES AS ALPHA-2A ADRENOCEPTOR AGONISTS” (Allergan Sales, Inc., priority 1994, dated 1995).

Biological target: T1, α2A receptor (Oryctolagus cuniculus, UniProt Q5ZQK3)
T1 construct: The prostatic ends of the vas deferens (2-3 cm) were removed from albino rabbits; from tissue; host or cells: rabbit vas deferens (prostatic end)
T1 sequence (Q5ZQK3 1-451): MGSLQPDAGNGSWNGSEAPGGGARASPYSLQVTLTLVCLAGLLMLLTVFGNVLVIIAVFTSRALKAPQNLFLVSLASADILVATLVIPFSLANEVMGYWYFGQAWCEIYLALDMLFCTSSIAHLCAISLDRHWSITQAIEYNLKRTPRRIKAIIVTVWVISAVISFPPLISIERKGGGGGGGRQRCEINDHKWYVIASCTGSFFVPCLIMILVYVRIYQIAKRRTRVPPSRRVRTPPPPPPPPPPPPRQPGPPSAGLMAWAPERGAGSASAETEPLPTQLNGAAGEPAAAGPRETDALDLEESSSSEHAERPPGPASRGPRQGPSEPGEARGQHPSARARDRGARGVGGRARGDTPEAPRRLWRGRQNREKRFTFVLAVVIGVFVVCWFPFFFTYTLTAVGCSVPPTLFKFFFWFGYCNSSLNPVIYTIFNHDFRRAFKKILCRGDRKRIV
Experiment: Vas deferens functional assay: reduction of electrically evoked contractions
Assay type: cell-based
Details: field-stimulated isolated rabbit vas deferens, 50% reduction in peak height
Protocol: Vas Deferens: The prostatic ends of the vas deferens (2-3 cm) were removed from albino rabbits and mounted between platinum electrodes in 9 mL organ baths containing Krebs-Hensleit solution of the following composition (mM): NaCl 119, KCl 4.7, MgSO4 1.5, KH2PO4 1.2. CaCl2 2.5, NaHCO3 25 and glucose 11. This solution was maintained at 35° C and bubbled with 95% O2 and 5% CO2. The tissue was equilibrated at 0.5 g tension for 30 minutes. The vas deferens strips were then field stimulated at 0.1 Hz, 2 msec, 90 mA using a square wave stimulator (World Precision Instruments A310 Accupulser / A385 Stimulus Isolater), or a Grass S48 stimulator at 0.1 Hz, 2 msec, 70 volts. After 30 minutes of electrical stimulation, cumulative concentration-response curves in 0.25 log units were obtained with a 4 minute contact time for each concentration. Each tissue was used to evaluate only one drug. Tissue contractions produced by the field stimulation were measured isometrically using Grass FT-.03 force-displacement transducers and recorded on a Grass Model 7D physiograph. The reduction in electrically-evoked peak height by the drugs was measured and expressed as a percentage of the pre-drug peak height.
Representative compounds of the present invention, and comparative examples, were tested according to the procedures given above. The receptor binding studies and […] are measures of the affinity of a compound for a particular receptor. The vas deferens assay is a measure of the degree of activation of the α2A affected when a compound binds to that receptor.

Brc1c(Nc2ncc[nH]2)ccc2nccnc12
EC50: 49.4 nM

c1ccc(Nc2ncc[nH]2)cc1
EC50: 56200 nM

Clc1cccc(Cl)c1Nc1ncc[nH]1
EC50: 86.3 nM

Cc1c(Nc2ncc[nH]2)ccc2nccnc12
EC50: 35.3 nM

Cc1c(Nc2ncc[nH]2)ccc2c1OCCO2
EC50: 1.61 nM
